Source: patent US12435059B2, “AMP-activated protein kinase inhibitors and methods of making and using the same” (The Regents of the University of Colorado, priority 2019, dated 2025)
Like-named read-outs stand apart in the source and are kept apart here.

Legend:
Assay in all cases: biochemical
Format in all cases: binding
468 kinases [1] = biological target: 468 kinases (Homo sapiens, UniProt P50750); conditions: CDK9; read-out: % Inhibition @ 100 nM
468 kinases [2] = biological target: 468 kinases (Homo sapiens, UniProt O94768); conditions: DRAK2; read-out: % Inhibition @ 100 nM
468 kinases [3] = biological target: 468 kinases (Homo sapiens, UniProt P29322); conditions: EPHA8; read-out: % Inhibition @ 100 nM
468 kinases [4] = biological target: 468 kinases (Homo sapiens, UniProt P46734); conditions: MEK3; read-out: % Inhibition @ 100 nM
468 kinases [5] = biological target: 468 kinases (Homo sapiens, UniProt P00519, T315I); conditions: read-out: % Inhibition @ 100 nM
468 kinases [6] = biological target: 468 kinases (Homo sapiens, UniProt Q99755); conditions: PIP5K1A; read-out: % Inhibition @ 100 nM
468 kinases [7] = biological target: 468 kinases (Homo sapiens, UniProt Q16620); conditions: TRKB; read-out: % Inhibition @ 100 nM
468 kinases [8] = biological target: 468 kinases (Homo sapiens, UniProt Q9NSY1); conditions: BIKE; read-out: % Inhibition @ 100 nM
468 kinases [9] = biological target: 468 kinases (Plasmodium falciparum, UniProt P62344); conditions: PFCDPK1 (P.falciparum); read-out: % Inhibition @ 100 nM
468 kinases [10] = biological target: 468 kinases (Homo sapiens, UniProt P29317); conditions: EPHA2; read-out: % Inhibition @ 100 nM
468 kinases [11] = biological target: 468 kinases (Homo sapiens, UniProt P00533, L858R/T790M); conditions: EGFR(L858R,T790M); read-out: % Inhibition @ 100 nM
468 kinases [12] = biological target: 468 kinases (Homo sapiens, UniProt Q99640); conditions: PKMYT1; read-out: % Inhibition @ 100 nM
468 kinases [13] = biological target: 468 kinases (Homo sapiens, UniProt Q00532); conditions: CDKL1; read-out: % Inhibition @ 100 nM
468 kinases [14] = biological target: 468 kinases (Homo sapiens, UniProt Q9Y6M4); conditions: CSNK1G3; read-out: % Inhibition @ 100 nM
468 kinases [15] = biological target: 468 kinases (Homo sapiens, UniProt Q9UM73, L1196M); conditions: ALK(L1196M); read-out: % Inhibition @ 100 nM
468 kinases [16] = biological target: 468 kinases (Homo sapiens, UniProt P35590); conditions: TIEI; read-out: % Inhibition @ 100 nM
468 kinases [17] = biological target: 468 kinases (Homo sapiens, UniProt O14757); conditions: CHEK1; read-out: % Inhibition @ 100 nM
468 kinases [18] = biological target: 468 kinases (Homo sapiens, UniProt P36896); conditions: ACVR1B; read-out: % Inhibition @ 100 nM
468 kinases [19] = biological target: 468 kinases (Homo sapiens, UniProt Q16659); conditions: ERK3; read-out: % Inhibition @ 100 nM
468 kinases [20] = biological target: 468 kinases (Homo sapiens, UniProt P21802); conditions: FGFR2; read-out: % Inhibition @ 100 nM
468 kinases [21] = biological target: 468 kinases (Homo sapiens, UniProt P12931); conditions: SRC; read-out: % Inhibition @ 100 nM
468 kinases [22] = biological target: 468 kinases (Homo sapiens, UniProt O14920); conditions: IKK-beta; read-out: % Inhibition @ 100 nM
468 kinases [23] = biological target: 468 kinases (Homo sapiens, UniProt P53355); conditions: DAPK1; read-out: % Inhibition @ 100 nM
468 kinases [24] = biological target: 468 kinases (Homo sapiens, UniProt P21860); conditions: ERBB3; read-out: % Inhibition @ 100 nM
468 kinases [25] = biological target: 468 kinases (Homo sapiens, UniProt O43283); conditions: LZK; read-out: % Inhibition @ 100 nM
468 kinases [26] = biological target: 468 kinases (Homo sapiens, UniProt Q96PY6); conditions: NEK1; read-out: % Inhibition @ 100 nM
468 kinases [27] = biological target: 468 kinases (Homo sapiens, UniProt O75716); conditions: STK16; read-out: % Inhibition @ 100 nM
468 kinases [28] = biological target: 468 kinases (Homo sapiens, UniProt Q9UQB9); conditions: AURKC; read-out: % Inhibition @ 100 nM
468 kinases [29] = biological target: 468 kinases (Homo sapiens, UniProt P35916); conditions: FLT4; read-out: % Inhibition @ 100 nM
468 kinases [30] = biological target: 468 kinases (Homo sapiens, UniProt Q86Z02); conditions: HIPK1; read-out: % Inhibition @ 100 nM
468 kinases [31] = biological target: 468 kinases (Homo sapiens, UniProt Q13153); conditions: PAK1; read-out: % Inhibition @ 100 nM
468 kinases [32] = biological target: 468 kinases (Homo sapiens, UniProt O95382); conditions: ASK2; read-out: % Inhibition @ 100 nM
468 kinases [33] = biological target: 468 kinases (Homo sapiens, UniProt Q9H4B4); conditions: PLK3; read-out: % Inhibition @ 100 nM

**Q.** What does the source list for `CCN(CC)CCNC(=O)c1c(C)[nH]c(/C=C2\C(=O)Nc3ccc(CCO)cc32)c1C` [Compound No. 10, (Z)—N-(2-(Diethylamino)ethyl)-5-((5-(2-hydroxyethyl)-2-oxoindolin-3-ylidene)methyl)-2,4-dimethyl-1H-pyrrole-3-carboxamide]?
**A.** inhibition at 0.1 µM (468 kinases [1]): 0%; inhibition at 0.1 µM (468 kinases [2]): 1%; inhibition at 0.1 µM (468 kinases [3]): 0%; inhibition at 0.1 µM (468 kinases [4]): 9%; inhibition at 0.1 µM (468 kinases [5]; ABL1 (T3151)-nonphosphorylated): 56%; inhibition at 0.1 µM (468 kinases [5]; ABL1 (T3151)-phosphorylated): 91.8%; inhibition at 0.1 µM (468 kinases [6]): 98%; inhibition at 0.1 µM (468 kinases [7]): 61%; inhibition at 0.1 µM (468 kinases [8]): 97.4%; inhibition at 0.1 µM (468 kinases [9]): 0%; inhibition at 0.1 µM (468 kinases [10]): 2%; inhibition at 0.1 µM (468 kinases [11]): 0%; inhibition at 0.1 µM (468 kinases [12]): 19%; inhibition at 0.1 µM (468 kinases [13]): 31%; inhibition at 0.1 µM (468 kinases [14]): 6%; inhibition at 0.1 µM (468 kinases [15]): 52%; inhibition at 0.1 µM (468 kinases [16]): 2%; inhibition at 0.1 µM (468 kinases [17]): 42%; inhibition at 0.1 µM (468 kinases [18]): 0%; inhibition at 0.1 µM (468 kinases [19]): 0%; inhibition at 0.1 µM (468 kinases [20]): 37%; inhibition at 0.1 µM (468 kinases [21]): 15%; inhibition at 0.1 µM (468 kinases [22]): 8%; inhibition at 0.1 µM (468 kinases [23]): 4%; inhibition at 0.1 µM (468 kinases [24]): 14%; inhibition at 0.1 µM (468 kinases [25]): 0%; inhibition at 0.1 µM (468 kinases [26]): 9%; inhibition at 0.1 µM (468 kinases [27]): 0%; inhibition at 0.1 µM (468 kinases [28]): 40%; inhibition at 0.1 µM (468 kinases [29]): 27%; inhibition at 0.1 µM (468 kinases [30]): 56%; inhibition at 0.1 µM (468 kinases [31]): 0%; inhibition at 0.1 µM (468 kinases [32]): 0%; inhibition at 0.1 µM (468 kinases [33]): 4%

**Q.** Which inhibition at 0.1 µM (468 kinases [1]) does the source give for `CCN(CC)CCNC(=O)c1c(C)[nH]c(/C=C2\C(=O)Nc3ccc(CCC(N)=O)cc32)c1C` [Compound No. 16, (Z)-5-((5-(3-Amino-3-oxopropyl)-2-oxoindolin-3-ylidene)methyl)-N-(2-(diethylamino)ethyl)-2,4-dimethyl-1H-pyrrole-3-carboxamide] here?
**A.** Its inhibition at 0.1 µM is 6%.

**Q.** What about the inhibition at 0.1 µM (468 kinases [2]) of the same molecule?
**A.** The inhibition at 0.1 µM was 0%.

**Q.** And the inhibition at 0.1 µM (468 kinases [3])?
**A.** Its inhibition at 0.1 µM is 0%.

**Q.** And the inhibition at 0.1 µM (468 kinases [4])?
**A.** The inhibition at 0.1 µM was 35%.

**Q.** What about the inhibition at 0.1 µM (468 kinases [5]; ABL1 (T3151)-nonphosphorylated) of the same molecule?
**A.** The inhibition at 0.1 µM was 61%.

**Q.** And the inhibition at 0.1 µM (468 kinases [5]; ABL1 (T3151)-phosphorylated)?
**A.** Its inhibition at 0.1 µM is 86%.

**Q.** And the inhibition at 0.1 µM (468 kinases [6])?
**A.** Its inhibition at 0.1 µM is 91.1%.

**Q.** What about the inhibition at 0.1 µM (468 kinases [7]) of the same molecule?
**A.** The inhibition at 0.1 µM was 83%.

**Q.** What about the inhibition at 0.1 µM (468 kinases [8]) of the same molecule?
**A.** The inhibition at 0.1 µM was 93.6%.

**Q.** What about the inhibition at 0.1 µM (468 kinases [9]) of the same molecule?
**A.** The inhibition at 0.1 µM was 14%.

**Q.** And the inhibition at 0.1 µM (468 kinases [10])?
**A.** Its inhibition at 0.1 µM is 0%.

**Q.** What about the inhibition at 0.1 µM (468 kinases [11]) of the same molecule?
**A.** The inhibition at 0.1 µM was 18%.

**Q.** And the inhibition at 0.1 µM (468 kinases [12])?
**A.** The inhibition at 0.1 µM was 18%.

**Q.** And the inhibition at 0.1 µM (468 kinases [13])?
**A.** Its inhibition at 0.1 µM is 26%.

**Q.** What about the inhibition at 0.1 µM (468 kinases [14]) of the same molecule?
**A.** The inhibition at 0.1 µM was 5%.

**Q.** What about the inhibition at 0.1 µM (468 kinases [15]) of the same molecule?
**A.** Its inhibition at 0.1 µM is 31%.

**Q.** What about the inhibition at 0.1 µM (468 kinases [16]) of the same molecule?
**A.** Its inhibition at 0.1 µM is 14%.

**Q.** What about the inhibition at 0.1 µM (468 kinases [17]) of the same molecule?
**A.** The inhibition at 0.1 µM was 66%.

**Q.** What about the inhibition at 0.1 µM (468 kinases [18]) of the same molecule?
**A.** The inhibition at 0.1 µM was 0%.

**Q.** What about the inhibition at 0.1 µM (468 kinases [19]) of the same molecule?
**A.** Its inhibition at 0.1 µM is 9%.

**Q.** And the inhibition at 0.1 µM (468 kinases [20])?
**A.** The inhibition at 0.1 µM was 1%.

**Q.** What about the inhibition at 0.1 µM (468 kinases [21]) of the same molecule?
**A.** Its inhibition at 0.1 µM is 6%.

**Q.** And the inhibition at 0.1 µM (468 kinases [22])?
**A.** Its inhibition at 0.1 µM is 19%.

**Q.** What about the inhibition at 0.1 µM (468 kinases [23]) of the same molecule?
**A.** The inhibition at 0.1 µM was 20%.

**Q.** And the inhibition at 0.1 µM (468 kinases [24])?
**A.** Its inhibition at 0.1 µM is 11%.

**Q.** What about the inhibition at 0.1 µM (468 kinases [25]) of the same molecule?
**A.** Its inhibition at 0.1 µM is 61%.

**Q.** And the inhibition at 0.1 µM (468 kinases [26])?
**A.** The inhibition at 0.1 µM was 77%.

**Q.** And the inhibition at 0.1 µM (468 kinases [27])?
**A.** The inhibition at 0.1 µM was 6%.

**Q.** And the inhibition at 0.1 µM (468 kinases [28])?
**A.** The inhibition at 0.1 µM was 98.4%.

**Q.** And the inhibition at 0.1 µM (468 kinases [29])?
**A.** The inhibition at 0.1 µM was 56%.

**Q.** And the inhibition at 0.1 µM (468 kinases [30])?
**A.** The inhibition at 0.1 µM was 92.6%.

**Q.** And the inhibition at 0.1 µM (468 kinases [31])?
**A.** Its inhibition at 0.1 µM is 0%.

**Q.** What about the inhibition at 0.1 µM (468 kinases [32]) of the same molecule?
**A.** The inhibition at 0.1 µM was 47%.

**Q.** What about the inhibition at 0.1 µM (468 kinases [33]) of the same molecule?
**A.** Its inhibition at 0.1 µM is 16%.
